# Assay results taken from US11964962B2, “Substituted pyridazinone compound and use thereof” (SHANDONG FIRST MEDICAL UNIVERSITY & SHANDONG ACADEMY OF …, priority 2020, dated 2024).
# pEC50, pIC50: −log10 of the molar value.
# Legend:
# L929 mouse fibroblasts = test: Cytotoxicity in normal cell line L929 (CCK-8 proliferation assay); assay type: cell-based; conditions: 48 h treatment, CCK-8, absorbance 450 nm, read-out: IC50 for proliferation of L929 cell lines
# Description: Concentration of L929 mouse fibroblasts was adjusted to 4×10^5 cells/mL. The cells were seeded in a 96 well plate with […] per well. Wells not supplied with the cells (blank group) were provided. The cells were cultivated on the plate and were allowed to adhere overnight. Then, cell culture supernatants were collected, and 200 μL of test compound at various concentrations were added to the corresponding cell culture supernatants. Control and compound-treated cell culture supernatants were included in each experiment with triplicate wells for each experimental group, and were cultivated for a further 48 h. Then, the resulting cell culture supernatants were again collected, and fresh medium supplemented with 10% CCK-8 solution was added thereto. Incubation for an additional 3 h was carried out. Thereafter, the absorbance of the medium was measured at 450 nm wavelength, and the inhibitory rate of cell proliferation by test compound was calculated according to the equation below: R (%)=1−(Aexperiment−Ablank)/(Acontrol−Ablank)
# THRα = molecular target: T1, THRα (Homo sapiens, UniProt P10827); test: THRα agonist activity, fluorescence ratio 665 nm/615 nm with EE-RxRα and biotin-GRIP; assay type: biochemical; conditions: incubated overnight at 4° C.
# T1 construct: GST
# T1 sequence (P10827 1-410 isoform P10827-2): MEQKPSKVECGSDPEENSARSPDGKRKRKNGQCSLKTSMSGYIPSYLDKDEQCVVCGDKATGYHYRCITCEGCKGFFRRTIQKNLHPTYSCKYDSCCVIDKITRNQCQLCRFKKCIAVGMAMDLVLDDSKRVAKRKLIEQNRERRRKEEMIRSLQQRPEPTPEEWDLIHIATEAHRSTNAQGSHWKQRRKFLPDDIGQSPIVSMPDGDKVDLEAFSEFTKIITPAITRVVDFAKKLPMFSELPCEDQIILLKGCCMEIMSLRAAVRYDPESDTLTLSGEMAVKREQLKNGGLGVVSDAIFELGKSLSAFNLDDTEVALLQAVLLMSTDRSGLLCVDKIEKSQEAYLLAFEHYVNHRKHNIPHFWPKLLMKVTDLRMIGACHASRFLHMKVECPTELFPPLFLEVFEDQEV
# T1 sequence (P19793 225-462 partner limits assumed): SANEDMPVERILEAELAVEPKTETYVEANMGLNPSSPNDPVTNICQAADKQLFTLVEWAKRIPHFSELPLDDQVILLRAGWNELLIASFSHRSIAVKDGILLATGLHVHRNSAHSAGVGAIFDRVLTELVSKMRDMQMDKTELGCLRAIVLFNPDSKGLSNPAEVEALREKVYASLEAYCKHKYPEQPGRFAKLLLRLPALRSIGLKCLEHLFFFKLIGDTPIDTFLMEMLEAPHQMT
# T1 sequence (Q15596 679-703 partner limits assumed): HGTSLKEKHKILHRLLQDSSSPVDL
# Description: (§1) Test compound was dissolved and serially diluted in dimethyl sulfoxide (DMSO) with a final compound concentration of 60 mM. […] Buffer 1 was employed again to prepare EE-RxRα at the same concentrations as those of THRα and THRβ, respectively. Buffer 1+5% DMSO was employed to prepare biotin-GRIP (THRα: […], THRβ: 100 nM). Buffer 2 (50 mM Tris, pH 7.4, 100 mM NaCl, and 0.2 mg/mL BSA) was employed to prepare a mixed solution of 2×Eu-anti-GST and 2×streptavidin-d2. 5 μL of the THRα (THRβ) solution+5 μL of EE-RxRα+2.5 μL of the DMSO solution of test compound+2.5 μL of biotin-GRIP+5 μL of the mixed solution of 2×Eu-anti-GST and 2×streptavidin-d2 was employed as the reaction system, and incubated overnight at 4° C.
# THRβ = molecular target: T2, THRβ (Homo sapiens, UniProt P10828); test: THRβ agonist activity, fluorescence ratio 665 nm/615 nm with EE-RxRα and biotin-GRIP; assay type: biochemical; conditions: incubated overnight at 4° C.
# T2 construct: GST
# T2 sequence (P10828 1-461): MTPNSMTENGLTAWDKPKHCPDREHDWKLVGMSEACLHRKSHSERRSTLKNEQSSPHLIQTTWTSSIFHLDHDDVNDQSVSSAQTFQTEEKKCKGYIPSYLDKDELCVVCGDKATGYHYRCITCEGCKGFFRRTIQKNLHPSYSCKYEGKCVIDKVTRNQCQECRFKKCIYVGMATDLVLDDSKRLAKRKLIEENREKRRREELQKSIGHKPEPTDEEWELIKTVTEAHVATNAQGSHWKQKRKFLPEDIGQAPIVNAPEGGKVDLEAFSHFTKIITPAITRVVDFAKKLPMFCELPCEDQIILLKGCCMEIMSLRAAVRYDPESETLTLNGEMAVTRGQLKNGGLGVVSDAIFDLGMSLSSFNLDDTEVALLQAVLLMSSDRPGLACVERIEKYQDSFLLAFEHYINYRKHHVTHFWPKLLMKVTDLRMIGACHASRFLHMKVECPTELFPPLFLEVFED
# T2 sequence (P19793 225-462 partner limits assumed): T1 sequence (P19793 225-462 partner limits assumed)
# T2 sequence (Q15596 679-703 partner limits assumed): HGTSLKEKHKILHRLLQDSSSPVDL
# Description: as §1
Compound,pEC50 (THRα),pEC50 (THRβ),pIC50 (L929 mouse fibroblasts)
N#Cc1nn(-c2cc(Cl)c(Oc3n[nH]c(=O)cc3C3CCCC3)c(Cl)c2)c(=O)[nH]c1=O [Compound 38],5.33,6.11,< 4.30
N#Cc1nn(-c2cc(Cl)c(Oc3cc(C4CCCC4)c(=O)[nH]n3)cc2Cl)c(=O)[nH]c1=O [Compound 34],7.85,5.41,< 4.30
N#Cc1nn(-c2ccc(Oc3cc(CC4CCCC4)c(=O)[nH]n3)cc2Cl)c(=O)[nH]c1=O [Compound 10],,5.82,< 4.30
CC(C)(C)Cc1cc(Oc2ccc(-n3cc(C#N)c(=O)[nH]c3=O)c(Cl)c2)n[nH]c1=O [Compound 45],,< 4.22,< 4.30
CC(C)(C)Cc1cc(Oc2cc(Cl)c(-n3nc(C#N)c(=O)[nH]c3=O)cc2Cl)n[nH]c1=O [Compound 20],,5.34,< 4.30
COc1cc(-n2nc(C#N)c(=O)[nH]c2=O)ccc1Oc1n[nH]c(=O)c(C)c1C [Compound 46],4.29,5.85,< 4.30
CC(C)c1cc(=O)[nH]nc1Oc1ccc(-n2nc(C#N)c(=O)[nH]c2=O)c(Cl)c1 [Compound 36],4.86,5.38,< 4.30
N#Cc1nn(-c2ccc(Oc3cc(C4CCCC4)c(=O)[nH]n3)cc2Cl)c(=O)[nH]c1=O [Compound 33],,5.12,< 4.30
N#Cc1nn(-c2ccc(Oc3n[nH]c(=O)cc3C3CC3)c(Cl)c2)c(=O)[nH]c1=O [Compound 37],9.00,5.49,< 4.30
CC(C)Cc1cc(Oc2ccc(-n3nc(C#N)c(=O)[nH]c3=O)cc2Br)n[nH]c1=O [Compound 15],,5.82,< 4.30
CC(C)c1cc(Oc2ccc(-n3cc(C#N)c(=O)[nH]c3=O)c(Cl)c2)n[nH]c1=O [Compound 41],9.00,< 4.22,< 4.30
CC(C)c1cc(Oc2ccc(-n3nc(C#N)c(=O)[nH]c3=O)c(Cl)c2)n[nH]c1=O [Compound 30],< 4.22,4.76,< 4.30
COc1cc(-n2nc(C#N)c(=O)[nH]c2=O)ccc1Oc1cc(CC(C)(C)C)c(=O)[nH]n1 [Compound 21],4.70,5.82,< 4.30
COc1cc(-n2nc(C#N)c(=O)[nH]c2=O)ccc1Oc1cc(CC2CCCC2)c(=O)[nH]n1 [Compound 12],5.06,6.14,< 4.30
CC(C)c1cc(Oc2cc(Cl)c(-n3cc(C#N)c(=O)[nH]c3=O)cc2Cl)n[nH]c1=O [Compound 40],4.62,< 4.20,< 4.30
CC(C)c1cc(=O)[nH]nc1Oc1cc(Cl)c(-n2nc(C#N)c(=O)[nH]c2=O)cc1Cl [Compound 35],< 4.22,< 4.22,< 4.30
CC(C)(C)c1cc(Oc2c(Cl)cc(-c3c[nH]c(=O)c(O)c3)cc2Cl)n[nH]c1=O [Compound 48],5.44,6.13,< 4.30
COc1cc(-n2nc(C#N)c(=O)[nH]c2=O)ccc1Oc1cc(C(C)(C)C)c(=O)[nH]n1 [Compound 5],6.05,5.31,< 4.30
CC(C)(C)c1cc(Oc2ccc(-n3nc(C#N)c(=O)[nH]c3=O)c(Cl)c2)n[nH]c1=O [Compound 4],< 4.22,5.80,< 4.30

# The next molecules have a higher pEC50 (THRβ) than those just listed; values first:
pEC50 (THRα),pEC50 (THRβ),Compound,pIC50 (L929 mouse fibroblasts)
5.32,6.19,N#Cc1nn(-c2ccc(Oc3cc(CC4CCCC4)c(=O)[nH]n3)c(Br)c2)c(=O)[nH]c1=O [Compound 9],< 4.30
5.49,6.23,N#Cc1nn(-c2ccc(Oc3n[nH]c(=O)cc3C3CCCC3)c(Cl)c2)c(=O)[nH]c1=O [Compound 39],< 4.30
5.59,6.33,CC(C)(C)c1cc(Oc2c(Cl)cc(-c3nn[nH]n3)cc2Cl)n[nH]c1=O [Compound 50],< 4.30
4.73,6.55,N#Cc1nn(-c2ccc(Oc3cc(C4CCCC4)c(=O)[nH]n3)c(F)c2)c(=O)[nH]c1=O [Compound 32],< 4.30
5.48,6.60,"CC(C)c1cc(Oc2c(Cl)cc(-c3nn[nH]n3)cc2Cl)n[nH]c1=O [Compound 49, 6-(2,6-dichloro-4-(2H-tetrazol-5-yl)phenoxy)-4-isopropylpyridazin-3(2H)-one]",< 4.30
6.20,6.73,Cc1c(Oc2c(Cl)cc(-n3nc(C#N)c(=O)[nH]c3=O)cc2Cl)n[nH]c(=O)c1C [Compound 22],< 4.30
,6.93,CC(C)c1cc(Oc2cc(Cl)c(-n3nc(C#N)c(=O)[nH]c3=O)cc2Cl)n[nH]c1=O [Compound 29],< 4.30
7.42,6.99,CC(C)c1cc(Oc2c(Br)cc(-n3nc(C#N)c(=O)[nH]c3=O)cc2Br)n[nH]c1=O [Compound 28],< 4.30
4.93,7.18,CC(C)(C)Cc1cc(Oc2ccc(-n3nc(C#N)c(=O)[nH]c3=O)cc2Cl)n[nH]c1=O [Compound 19],< 4.30
5.29,7.20,COc1cc(-n2nc(C#N)c(=O)[nH]c2=O)ccc1Oc1cc(C(C)C)c(=O)[nH]n1 [Compound 31],< 4.30
5.68,7.26,CC(C)c1cc(Oc2ccc(-n3nc(C#N)c(=O)[nH]c3=O)cc2Cl)n[nH]c1=O [Compound 26],< 4.30
5.64,7.38,CC(C)(C)Cc1cc(Oc2cc(Cl)c(-n3cc(C#N)c(=O)[nH]c3=O)cc2Cl)n[nH]c1=O [Compound 44],< 4.30
5.18,7.39,CC(C)(C)Cc1cc(Oc2c(Cl)cc(-n3cc(C#N)c(=O)[nH]c3=O)cc2Cl)n[nH]c1=O [Compound 43],< 4.30
5.21,7.49,N#Cc1nn(-c2ccc(Oc3cc(CC4CCCC4)c(=O)[nH]n3)c(Cl)c2)c(=O)[nH]c1=O [Compound 8],< 4.30
5.74,7.59,"N#Cc1cn(-c2cc(Cl)c(Oc3cc(C4CCC4)c(=O)[nH]n3)c(Cl)c2)c(=O)[nH]c1=O [Compound 42, 1-(3,5-dichloro-4-((5-cyclobutyl-6-oxo-1,6-dihydropyridazin-3-yl)oxy)phenyl)-2,4-dioxo-1,2,3,4-tetrahydropyrimidine-5-carbonitrile]",< 4.30
5.47,7.60,CC(C)Cc1cc(Oc2c(Cl)cc(-n3nc(C#N)c(=O)[nH]c3=O)cc2Cl)n[nH]c1=O [Compound 14],< 4.30
5.27,7.68,"CC(C)(C)c1cc(Oc2ccc(-n3nc(C#N)c(=O)[nH]c3=O)cc2F)n[nH]c1=O [Compound 2, 2-(4-((5-(tert-butyl)-6-oxo-1,6-dihydropyridazin-3-yl)oxy)-3-fluorophenyl)-3,5-dioxo-2,3,4,5-tetrahydro-1,2,4-triazine-6-carbonitrile]",< 4.30
